Results: PMC3573112, “Compatibility in the Ustilago maydis–Maize Interaction Requires Inhibition of Host Cysteine Proteases by the Fungal Effector Pit2” (PLoS Pathogens, 2013)
Where a SMILES comes first, the peptide text is derived from it. The star is where a group is joined. AMC = Cc1cc(=O)oc2cc(N*)ccc12; Cbz = O=C(OCc1ccccc1)*

How the values were obtained:
[1] = biological target: T1, CP2 (corn cysteine protease 2) (Zea mays, UniProt Q43705); test: fluorimetric protease assay (AMC release, […] nm); type: biochemical; details: 1 µM substrate; pH 6.0
T1 construct: gene see1
T1 sequence (Q43705 143-360 limits assumed): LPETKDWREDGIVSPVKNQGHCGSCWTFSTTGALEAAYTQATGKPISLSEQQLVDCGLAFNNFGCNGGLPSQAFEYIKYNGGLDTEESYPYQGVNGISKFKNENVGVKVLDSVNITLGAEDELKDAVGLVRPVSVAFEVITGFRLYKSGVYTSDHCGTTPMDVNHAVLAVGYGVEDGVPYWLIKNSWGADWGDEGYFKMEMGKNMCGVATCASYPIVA

[2] = biological target: T2, XCP2 (Zea mays, UniProt B6TIC7); test: fluorimetric protease assay (AMC release), apoplastic fluid; type: biochemical; details: 2 µM substrate; pH 6.0, room temperature; DTT
T2 construct: transiently expressed in Nicotiana benthamiana (pGreenII 0029); apoplastic fluid, not purified
T2 sequence (B6TIC7 158-377): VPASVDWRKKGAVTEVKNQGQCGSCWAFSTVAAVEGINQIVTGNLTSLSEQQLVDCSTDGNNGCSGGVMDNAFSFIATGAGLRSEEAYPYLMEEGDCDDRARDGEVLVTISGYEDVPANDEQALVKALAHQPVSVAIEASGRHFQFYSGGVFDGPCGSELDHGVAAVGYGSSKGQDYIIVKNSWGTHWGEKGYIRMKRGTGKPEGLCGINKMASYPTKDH

[3] = biological target: T3, CathepsinBIII (CatB) (Zea mays, UniProt B6TLR9); test: as above; type: biochemical; details: 2 µM substrate; pH 6.0, room temperature; DTT
T3 construct: transiently expressed in Nicotiana benthamiana (pGreenII 0029); apoplastic fluid, not purified
T3 sequence (B6TLR9 93-347): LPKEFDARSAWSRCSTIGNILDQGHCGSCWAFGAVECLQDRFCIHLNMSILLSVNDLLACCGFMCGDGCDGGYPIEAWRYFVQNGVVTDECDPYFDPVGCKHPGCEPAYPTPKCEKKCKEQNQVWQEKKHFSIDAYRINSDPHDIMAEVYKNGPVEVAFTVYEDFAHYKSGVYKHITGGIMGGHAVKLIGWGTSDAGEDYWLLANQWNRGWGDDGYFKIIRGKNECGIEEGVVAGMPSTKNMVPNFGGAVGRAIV

[4] = biological target: T4, CP1A (Zea mays, UniProt B6T669); test: as above; type: biochemical; details: 2 µM substrate; pH 6.0, room temperature; DTT
T4 construct: transiently expressed in Nicotiana benthamiana (pGreenII 0029); apoplastic fluid, not purified
T4 sequence (B6T669 130-463): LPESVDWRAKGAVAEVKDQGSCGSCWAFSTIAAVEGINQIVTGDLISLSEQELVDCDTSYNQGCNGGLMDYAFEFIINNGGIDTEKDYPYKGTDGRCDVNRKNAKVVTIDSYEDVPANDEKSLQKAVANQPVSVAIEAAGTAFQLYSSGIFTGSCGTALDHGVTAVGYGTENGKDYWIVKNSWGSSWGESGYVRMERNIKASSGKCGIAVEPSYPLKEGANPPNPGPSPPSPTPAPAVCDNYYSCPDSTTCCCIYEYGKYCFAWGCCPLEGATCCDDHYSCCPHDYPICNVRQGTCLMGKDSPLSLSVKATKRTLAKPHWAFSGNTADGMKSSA

[5] = biological target: T5, CP2 (Zea mays, UniProt Q43705); test: as above; type: biochemical; details: 2 µM substrate; pH 6.0, room temperature; DTT
T5 construct: gene see1; transiently expressed in Nicotiana benthamiana (pGreenII 0029); apoplastic fluid, not purified
T5 sequence (Q43705 143-360): T1 sequence (Q43705 143-360 limits assumed)

[6] = biological target: CP2 (corn cysteine protease 2) without signal peptide and prodomain, Gal4 activation domain fusion (pGADT7-CP2) (maize) (UniProt Q10717)
[7] = biological target: T1, CP2 (corn cysteine protease 2); test: fluorimetric protease assay with Z-Phe-Arg-AMC; type: biochemical; details: 10 min preincubation; 1 µM Z-Phe-Arg-AMC; pH 6.0; covalent

For `Cc1cc(=O)oc2cc(NC(=O)[C@H](CCCNC(=N)N)NC(=O)[C@H](Cc3ccccc3)NC(=O)OCc3ccccc3)ccc12` [Z-Phe-Arg-7-amido-4-methylcoumarin] (Cbz-Phe-Arg-{AMC}), the “fluorimetric protease assay (AMC release, 460 nm)” value [1] was “Protease-activity was determined using the fluorescent substrate Z-Phe-Arg-AMC”, the “fluorimetric protease assay (AMC release), apoplastic fluid” value [2] was “Protease activity was determined using substrate Z-Phe-Arg-AMC” and the “fluorimetric protease assay (AMC release), apoplastic fluid” value [3] was “Protease activity was determined using substrate Z-Phe-Arg-AMC”. For the same compound, the “fluorimetric protease assay (AMC release), apoplastic fluid” value [4] was “Protease activity was determined using substrate Z-Phe-Arg-AMC” and the “fluorimetric protease assay (AMC release), apoplastic fluid” value [5] was “Protease activity was determined using substrate Z-Phe-Arg-AMC”.

“GST-Pit2 (Pit2 without signal peptide with N-terminal GST-tag, pRSET-GST-PP-Pit2) (natural protein)” showed an inhibition of the activity on Z-Phe-Arg-AMC of recombinant His-tagged CP2 (E. coli, refolded, activated by pH shift and pepsin) by 10 µM recombinant Pit2 (GST tag removed) [6] of 85 % inhibition.

With `CC(C)C[C@H](NC(=O)[C@H]1O[C@@H]1C(=O)O)C(=O)NCCCCN=C(N)N` [E-64] the “inhibition at 2.5 μM” value [7] was “inhibited by addition of the specific small molecule cysteine protease inhibitor E-64”.
